Values of other authors as cited in patent publication US20240153607A1, “System for Determining Treatment Timing and Methods of Treatment Timed Based on Biological Process Indicators” (Arcascope Inc., priority 2022, published 2024).

Conditions: cancer treatments in humans; [Hrushesky], [Lévi1990]

Structure (SMILES)	time of day at which the drug is most tolerable (toxicity by time of day)
COc1cccc2c1C(=O)c1c(O)c3c(c(O)c1C2=O)C[C@@](O)(C(=O)CO)C[C@@H]3O[C@H]1C[C@H](N)[C@H](O)[C@H](C)O1 [doxorubicin]	most tolerable in the morning
COc1cccc2c1C(=O)c1c(O)c3c(c(O)c1C2=O)C[C@@](O)(C(=O)CO)C[C@@H]3O[C@H]1C[C@H](N)[C@H](O[C@@H]2CCCCO2)[C@H](C)O1 [theprubicin]	most tolerable in the morning
